The numbers were not newly measured in patent US20110230549A1, “PHARMACEUTICAL COMPOSITIONS FOR THE TREATMENT OF PAIN” (GW Pharma Limited, priority 2005, published 2011), which cites them from elsewhere.

In data set [1] the test system is PBQ-induced writhing in mice. As to conditions: compared among cannabinoids and pre-cursors.
In data set [2] the test system is patient with familial Mediterranean fever. Conditions: 50 mg.

`C=C(C)[C@@H]1CCC(C)=C[C@H]1c1c(O)cc(CCCCC)cc1O` [CBD, cannabidiol]: in data set [1] (oral administration), the “Inhibition of PBQ-induced writhing in mice” value was “most effective”.

Turning to `CCCCCc1cc(O)c2c(c1)OC(C)(C)c1ccc(C)cc1-2` [CBN], in data set [1], the “Effectiveness at reducing analgesia and inflammation” value is recorded as “least effective”.

Turning to `CCCCCc1cc(O)c2c(c1)OC(C)(C)[C@@H]1CCC(C)=C[C@@H]21` [THC, delta-9-tetrahydrocannabinol], in data set [1], the “Effectiveness at reducing analgesia and inflammation” value was “least effective”. For the same compound, the “Amount of analgesia that the patient required” value in data set [2] is on record as “highly significant reduction”.
